Assay results reported in ChEMBL document CHEMBL4616720 (J Med Chem, 2020).

How the values were obtained:
HCT-116 = test: Antiproliferative activity against human HCT116 cells assessed as reduction in cell growth measured after 48 hrs by CCK8 assay; type: functional, cell-based; details: HCT-116, 48 h
[1] = target: T1, Peptide deformylase, mitochondrial (Homo sapiens, UniProt Q9HBH1); test: Inhibition of human PDF expressed in Escherichia coli BL21 pLysS using formyl-Met-Ala-His-Ala peptide as substrate measured after 1 hr by fluorescamine-based fluorescence assay
T1 sequence (Q9HBH1 whole entry): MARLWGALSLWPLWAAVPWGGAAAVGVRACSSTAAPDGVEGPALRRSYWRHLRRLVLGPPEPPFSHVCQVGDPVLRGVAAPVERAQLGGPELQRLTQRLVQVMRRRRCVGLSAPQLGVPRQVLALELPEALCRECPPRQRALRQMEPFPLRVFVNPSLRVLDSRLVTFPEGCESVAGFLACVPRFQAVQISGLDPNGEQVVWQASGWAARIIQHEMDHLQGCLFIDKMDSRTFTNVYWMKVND

SJSA-1 = test: Antiproliferative activity against human SJSA1 cells assessed as reduction in cell growth measured after 48 hrs by CCK8 assay; type: functional, cell-based; details: SJSA-1, 48 h
A549 = test: Antiproliferative activity against human A549 cells assessed as reduction in cell growth measured after 48 hrs by CCK8 assay; type: functional, cell-based; details: A549, 48 h
MCF-10A = test: Cytotoxicity against human MCF10A cells assessed as reduction in cell growth measured after 48 hrs by CCK8 assay; type: cell-based
HL-60 = test: Antiproliferative activity against human HL60 cells assessed as reduction in cell growth measured after 48 hrs by CCK8 assay; type: functional, cell-based; details: HL-60, 48 h
MCF7 = test: Antiproliferative activity against human MCF7 cells assessed as reduction in cell growth measured after 48 hrs by CCK8 assay; type: functional, cell-based; details: MCF7, 48 h
Histone deacetylase 1 [2] = target: T2, Histone deacetylase 1 (Homo sapiens, UniProt Q13547); test: Inhibition of HDAC1 (unknown origin) using Boc-Lys(Ac)-pNA as substrate preincubated for 20 mins followed by substrate addition and further incubated for 90 mins by fluorescence assay
T2 sequence (Q13547 whole entry): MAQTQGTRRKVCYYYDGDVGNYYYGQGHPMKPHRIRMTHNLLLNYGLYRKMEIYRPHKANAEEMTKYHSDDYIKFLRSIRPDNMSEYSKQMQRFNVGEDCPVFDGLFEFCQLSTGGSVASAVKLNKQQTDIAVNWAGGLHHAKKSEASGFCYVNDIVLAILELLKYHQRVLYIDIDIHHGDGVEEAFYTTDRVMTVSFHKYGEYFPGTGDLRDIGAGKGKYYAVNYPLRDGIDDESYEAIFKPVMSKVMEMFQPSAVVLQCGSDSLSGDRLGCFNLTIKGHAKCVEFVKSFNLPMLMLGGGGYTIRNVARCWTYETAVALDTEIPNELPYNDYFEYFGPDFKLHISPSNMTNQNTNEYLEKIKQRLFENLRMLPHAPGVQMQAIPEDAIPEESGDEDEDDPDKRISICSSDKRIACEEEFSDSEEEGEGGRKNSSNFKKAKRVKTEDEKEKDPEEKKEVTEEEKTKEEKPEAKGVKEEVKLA

Histone deacetylase 1 [3] = target: T2, Histone deacetylase 1; test: Inhibition of HDAC1 (unknown origin) at 10 uM using Boc-Lys(Ac)-pNA as substrate preincubated for 20 mins followed by substrate addition and further incubated for 90 mins by fluorescence assay relative to control
[4] = target: T3, Protein deacetylase HDAC6 (Homo sapiens, UniProt Q9UBN7); test: Inhibition of HDAC6 (unknown origin) using Boc-Lys(Ac)-pNA as substrate preincubated for 20 mins followed by substrate addition and further incubated for 90 mins by fluorescence assay
T3 sequence (Q9UBN7 whole entry): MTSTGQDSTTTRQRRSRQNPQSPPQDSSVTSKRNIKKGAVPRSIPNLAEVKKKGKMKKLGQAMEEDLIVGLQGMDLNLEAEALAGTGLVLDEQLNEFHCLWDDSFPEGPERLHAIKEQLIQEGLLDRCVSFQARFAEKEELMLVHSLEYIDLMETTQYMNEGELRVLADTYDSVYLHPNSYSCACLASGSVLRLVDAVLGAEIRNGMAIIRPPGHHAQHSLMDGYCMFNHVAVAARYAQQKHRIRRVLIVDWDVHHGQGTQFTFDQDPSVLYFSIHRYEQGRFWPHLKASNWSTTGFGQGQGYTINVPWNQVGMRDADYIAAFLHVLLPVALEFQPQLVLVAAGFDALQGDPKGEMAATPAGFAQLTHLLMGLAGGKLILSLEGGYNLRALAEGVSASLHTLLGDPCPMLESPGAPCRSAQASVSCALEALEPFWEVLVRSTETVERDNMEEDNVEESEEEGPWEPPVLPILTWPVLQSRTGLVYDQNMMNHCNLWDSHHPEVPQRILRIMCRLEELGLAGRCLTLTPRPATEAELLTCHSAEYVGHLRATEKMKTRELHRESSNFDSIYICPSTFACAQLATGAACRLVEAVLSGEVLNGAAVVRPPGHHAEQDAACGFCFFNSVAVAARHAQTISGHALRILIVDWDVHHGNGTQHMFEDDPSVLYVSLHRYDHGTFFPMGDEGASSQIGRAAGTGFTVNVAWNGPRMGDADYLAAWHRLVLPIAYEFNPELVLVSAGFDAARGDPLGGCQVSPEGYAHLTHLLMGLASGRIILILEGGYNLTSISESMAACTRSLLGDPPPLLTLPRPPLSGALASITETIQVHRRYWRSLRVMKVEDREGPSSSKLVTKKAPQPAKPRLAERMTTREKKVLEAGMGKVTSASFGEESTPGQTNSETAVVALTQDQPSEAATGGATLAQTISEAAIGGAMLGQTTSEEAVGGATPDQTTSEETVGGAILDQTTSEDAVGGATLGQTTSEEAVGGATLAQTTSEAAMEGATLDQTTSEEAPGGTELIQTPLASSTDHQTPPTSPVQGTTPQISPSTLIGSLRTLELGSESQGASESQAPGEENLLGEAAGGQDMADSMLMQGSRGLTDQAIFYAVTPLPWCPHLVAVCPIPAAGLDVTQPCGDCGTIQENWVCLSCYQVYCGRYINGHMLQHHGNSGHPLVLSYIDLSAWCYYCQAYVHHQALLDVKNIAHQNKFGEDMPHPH

[5] = target: T4, Protein deacetylase HDAC6 (Homo sapiens) (UniProt Q9UBN7); test: Inhibition of HDAC6 (unknown origin) at 10 uM using Boc-Lys(Ac)-pNA as substrate preincubated for 20 mins followed by substrate addition and further incubated for 90 mins by fluorescence assay relative to control
T4 sequence (whole entry): T3 sequence (Q9UBN7 whole entry)

SMILES: CCCCc1ccc(-c2noc([C@@H]3CC4(CC4)CN3C(=O)[C@@H](CC(=O)NO)CC3CCCC3)n2)cc1
- IC50 (HCT-116): 2.07 µM
- IC50 [1]: 0.00424 µM

SMILES: Cn1cc(NC(=O)[C@@H]2CC3(CC3)CN2C(=O)[C@@H](CC(=O)NO)CC2CCCC2)cn1
- IC50 (HCT-116): > 40 µM
- IC50 [1]: 0.0302 µM

SMILES: O=C(C[C@@H](CC1CCCC1)C(=O)N1CC2(CC2)C[C@H]1C(=O)Nc1cccnn1)NO
- IC50 (HCT-116): > 40 µM
- IC50 [1]: 0.0131 µM

SMILES: O=C(C[C@@H](CC1CCCC1)C(=O)N1CC2(CC2)C[C@H]1c1nc(-c2cnccn2)no1)NO
- IC50 (HCT-116): > 40 µM
- IC50 [1]: 0.0161 µM

SMILES: Cc1ccc(NC(=O)[C@@H]2CC3(CC3)CN2C(=O)[C@@H](CC(=O)NO)CC2CCCC2)cc1
- IC50 (HCT-116): 11.2 µM
- IC50 [1]: 0.00358 µM

SMILES: O=C(C[C@@H](CC1CCCC1)C(=O)N1CC2(CC2)C[C@H]1C(=O)Nc1nccs1)NO
- IC50 (HCT-116): > 40 µM
- IC50 [1]: 0.00874 µM

SMILES: Cc1ccc(-c2noc([C@@H]3CC4(CC4)CN3C(=O)[C@@H](CC(=O)NO)CC3CCCC3)n2)cc1
- IC50 (HCT-116): 7.78 µM
- IC50 (SJSA-1): 5.35 µM
- IC50 (A549): 8.69 µM
- IC50 (MCF-10A): 29.8 µM
- IC50 (HL-60): 5.35 µM
- IC50 (MCF7): 9.89 µM
- IC50 [1]: 0.00926 µM

SMILES: CCCC[C@H](CC(=O)NO)C(=O)N1CC2(CC2)C[C@H]1C(=O)Nc1ccc(F)cn1
- IC50 (HCT-116): > 40 µM
- IC50 [1]: 0.00492 µM

SMILES: O=C(C[C@@H](CC1CCCC1)C(=O)N1CC2(CC2)C[C@H]1c1nc(-c2ccc(C(F)(F)F)cc2)no1)NO
- IC50 (HCT-116): 4.11 µM
- IC50 (SJSA-1): 2.95 µM
- IC50 (A549): 3.45 µM
- IC50 (MCF-10A): 22.4 µM
- IC50 (HL-60): 3.06 µM
- IC50 (MCF7): 5.79 µM
- IC50 [1]: 0.00719 µM

SMILES: C=C1C[C@@H](C(=O)Nc2ccc(F)cn2)N(C(=O)[C@@H](CC(=O)NO)CC2CCCC2)C1
- IC50 (HCT-116): > 40 µM
- IC50 [1]: 0.00715 µM

SMILES: O=C(C[C@@H](CC1CCCC1)C(=O)N1CC2(CC2)C[C@H]1C(=O)Nc1ccc(F)cc1C(F)(F)F)NO
- IC50 (HCT-116): 24.5 µM
- IC50 [1]: 0.00701 µM

SMILES: CCCC[C@H](CC(=O)NO)C(=O)N1CC2(CC2)C[C@H]1C(=O)Nc1ncc(C)s1
- IC50 (HCT-116): > 40 µM
- IC50 [1]: 0.00942 µM

SMILES: O=C(C[C@@H](CC1CCCC1)C(=O)N1CC2(CC2)C[C@H]1c1nc(-c2ccc(C3CC3)cc2)no1)NO
- IC50 (HCT-116): 3.47 µM
- IC50 [1]: 0.00501 µM

SMILES: O=C(C[C@@H](CC1CCCC1)C(=O)N1CC2(CC2)C[C@H]1C(=O)Nc1cnccn1)NO
- IC50 (HCT-116): > 40 µM
- IC50 [1]: 0.00587 µM

SMILES: CCc1ccc(-c2noc([C@@H]3CC4(CC4)CN3C(=O)[C@@H](CC(=O)NO)CC3CCCC3)n2)cc1
- IC50 (HCT-116): 2.31 µM
- IC50 (SJSA-1): 2.82 µM
- IC50 (A549): 2.43 µM
- IC50 (MCF-10A): 19.9 µM
- IC50 (HL-60): 1.88 µM
- IC50 (MCF7): 3.95 µM
- IC50 [1]: 0.00881 µM

SMILES: O=C(C[C@@H](CC1CCCC1)C(=O)N1CC2(CC2)C[C@H]1c1nc(-c2ccc(F)cn2)no1)NO
- IC50 (HCT-116): > 40 µM
- IC50 [1]: 0.00501 µM

SMILES: O=C(C[C@@H](CC1CCCC1)C(=O)N1CC2(CC2)C[C@H]1c1nc(-c2cc(F)cc(F)c2F)no1)NO
- IC50 (HCT-116): 3.62 µM
- IC50 [1]: 0.00708 µM

SMILES: O=C(C[C@@H](CC1CCCC1)C(=O)N1CC2(CC2)C[C@H]1c1nc(-c2ccc(C(F)(F)F)cc2F)no1)NO
- IC50 (HCT-116): 10 µM
- IC50 (SJSA-1): 8.7 µM
- IC50 (A549): 10.3 µM
- IC50 (MCF-10A): 29.1 µM
- IC50 (HL-60): 4.77 µM
- IC50 (MCF7): 10.6 µM
- IC50 [1]: 0.00485 µM

SMILES: O=C(C[C@@H](CC1CCCC1)C(=O)N1CC2(CC2)C[C@H]1C(=O)Nc1ccc(Br)cc1)NO
- IC50 (HCT-116): 5.35 µM
- IC50 [1]: 0.00612 µM

SMILES: Cc1cnc(NC(=O)[C@@H]2CC3(CC3)CN2C(=O)[C@@H](CC(=O)NO)CC2CCCC2)s1
- IC50 (HCT-116): 18.7 µM
- IC50 [1]: 0.00278 µM

SMILES: O=C(C[C@@H](CC1CCCC1)C(=O)N1CC2(CC2)C[C@H]1c1nc(-c2ccc(Br)cc2)no1)NO
- IC50 (HCT-116): 2.87 µM
- IC50 (SJSA-1): 2.56 µM
- IC50 (A549): 2.61 µM
- IC50 (MCF-10A): 21.7 µM
- IC50 (HL-60): 2.17 µM
- IC50 (MCF7): 3.56 µM
- IC50 [1]: 0.00548 µM

SMILES: Cc1noc([C@@H]2CC3(CC3)CN2C(=O)[C@@H](CC(=O)NO)CC2CCCC2)n1
- IC50 (HCT-116): > 40 µM
- IC50 [1]: 0.0293 µM

SMILES: O=C(C[C@@H](CC1CCCC1)C(=O)N1CC2(CC2)C[C@H]1c1nc(-c2ccccc2)no1)NO
- IC50 (HCT-116): 4.46 µM
- IC50 (SJSA-1): 3.8 µM
- IC50 (Histone deacetylase 1 [2]): > 10 µM
- IC50 (A549): 2.55 µM
- IC50 (MCF-10A): 32.3 µM
- IC50 (HL-60): 3.58 µM
- inhibition (Histone deacetylase 1 [3]): -0.95%
- IC50 [4]: > 10 µM
- inhibition [5]: 1.08%
- IC50 (MCF7): 8.64 µM
- IC50 [1]: 0.00377 µM

SMILES: Cc1csc(NC(=O)[C@@H]2CC3(CC3)CN2C(=O)[C@@H](CC(=O)NO)CC2CCCC2)n1
- IC50 (HCT-116): 29.1 µM
- IC50 [1]: 0.00299 µM

SMILES: O=C(C[C@@H](CC1CCCC1)C(=O)N1CCC[C@H]1C(=O)Nc1ccc(F)cn1)NO
- IC50 (HCT-116): > 40 µM
- IC50 [1]: 0.0109 µM

SMILES: O=C(C[C@@H](CC1CCCC1)C(=O)N1CC2(CC2)C[C@H]1C(=O)Nc1ccccc1)NO
- IC50 (HCT-116): 14.9 µM
- IC50 [1]: 0.00642 µM

SMILES: Cc1cc(C)cc(C(=O)NOCCCCCC(=O)NO)c1
- IC50 (Histone deacetylase 1 [2]): 0.058 µM
- IC50 [4]: 0.012 µM

SMILES: O=C(C[C@@H](CC1CCCC1)C(=O)N1CC2(CC2)C[C@H]1C(=O)Nc1ccncn1)NO
- IC50 (HCT-116): > 40 µM
- IC50 [1]: 0.00953 µM

SMILES: O=C(C[C@@H](CC1CCCC1)C(=O)N1CC2(CC2)C[C@H]1C(=O)Nc1ccc(F)cn1)NO
- IC50 (HCT-116): 20.2 µM
- IC50 [1]: 0.00587 µM

SMILES: Cc1cnc(NC(=O)[C@@H]2CCCN2C(=O)[C@@H](CC(=O)NO)CC2CCCC2)s1
- IC50 (HCT-116): > 40 µM
- IC50 [1]: 0.00894 µM

SMILES: O=C(C[C@@H](CC1CCCC1)C(=O)N1CC2(CC2)C[C@H]1c1nc(-c2ccc(C(F)(F)F)cc2Cl)no1)NO
- IC50 (HCT-116): 3.49 µM
- IC50 (SJSA-1): 3.15 µM
- IC50 (A549): 2.53 µM
- IC50 (MCF-10A): 28.4 µM
- IC50 (HL-60): 3.45 µM
- IC50 (MCF7): 5.78 µM
- IC50 [1]: 0.00647 µM
